Test results from patent US7781183B2 (priority 2003, dated 2010).
“Also recorded” adds a separate entry of the source.

Tests used:
[1] = target: anthrax lethal factor protease (Bacillus anthracis, UniProt P15917); test: biochemical; assay type: biochemical
J774A.1 cells = assay type: cell-based

Chain of anthrax lethal factor protease (P15917 34-809 limits assumed): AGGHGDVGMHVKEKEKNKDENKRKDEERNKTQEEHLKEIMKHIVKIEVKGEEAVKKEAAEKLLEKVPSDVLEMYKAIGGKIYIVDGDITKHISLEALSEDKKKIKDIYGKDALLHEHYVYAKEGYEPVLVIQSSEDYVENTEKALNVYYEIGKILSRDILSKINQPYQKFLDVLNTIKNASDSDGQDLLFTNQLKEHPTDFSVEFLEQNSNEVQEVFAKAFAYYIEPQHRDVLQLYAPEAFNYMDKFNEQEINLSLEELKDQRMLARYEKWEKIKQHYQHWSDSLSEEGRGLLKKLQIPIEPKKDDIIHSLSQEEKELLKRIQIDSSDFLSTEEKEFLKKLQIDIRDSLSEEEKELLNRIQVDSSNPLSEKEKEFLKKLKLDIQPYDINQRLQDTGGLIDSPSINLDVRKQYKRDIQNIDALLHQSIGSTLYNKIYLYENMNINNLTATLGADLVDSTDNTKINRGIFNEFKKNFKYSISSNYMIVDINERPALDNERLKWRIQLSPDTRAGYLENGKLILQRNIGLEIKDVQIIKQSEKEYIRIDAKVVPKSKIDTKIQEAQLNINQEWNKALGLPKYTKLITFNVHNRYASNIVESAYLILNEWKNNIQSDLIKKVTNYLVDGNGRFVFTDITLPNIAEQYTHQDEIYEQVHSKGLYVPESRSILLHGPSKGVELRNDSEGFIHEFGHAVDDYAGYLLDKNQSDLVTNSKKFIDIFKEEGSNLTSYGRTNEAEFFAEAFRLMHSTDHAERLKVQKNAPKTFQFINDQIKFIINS

`CCOc1ccc2c(N)c3ccc(/N=N/c4ccc(N)nc4N)cc3nc2c1` [NSC 354961] was tested. Which “Percent Inhibition” value [1] did it give?
Its value is 95.

For `C/C(=C\c1ccc(/C=C/c2cc3ccc(C4=NCCN4)cc3[nH]2)[nH]1)C1=NCCN1` [NSC 317880], which “Percent Inhibition” value [1] is on record?
Its value is 93.

`C(=C\c1cc2ccc(C3=NCCN3)cc2o1)/c1cc2cc(C3=NCCN3)ccc2[nH]1` [NSC 294201] was tested. Which “Percent Inhibition” value [1] did it give?
Its value is 88.

How did the inhibition at 20 µM [1] turn out when `c1cc(C2=NCCN2)ccc1Nc1ccc(-c2cc3ccc(C4=NCCN4)cc3[nH]2)cc1` [NSC 377362] was run?
The inhibition at 20 µM was 33%.

For `Cc1cc(N)c2cc(NC(=O)Nc3ccc4nc(C)cc(N)c4c3)ccc2n1` [NSC 12155], which Inhibition type [1] is on record?
The Inhibition type was “competitive inhibition”.

And the Ki [1]?
The Ki was 0.5 µM.

What about the “Km(app) with inhibitor concentration” value [1] of the same molecule?
Its value is “increased”.

And the “effect on the Vmax” value [1]?
Its value is “no effect”.

And the inhibition at 20 µM [1]?
The inhibition at 20 µM was 95%.

What about the “inhibition of LF activity (in words)” value [1] of the same molecule?
The value was “strong inhibition”.

What about the “protection (in words)” value (J774A.1 cells) of the same molecule?
Its value is “lower protection; also recorded: some protection”.

Which “Percent Inhibition” value [1] does the source give for `C(=C\c1cc2ccc(C3=NCCN3)cc2o1)/c1cc2cc(C3=NCCN3)ccc2[nH]1` [NSC 294204] here?
Its value is 84.

With `N=C(N)c1ccc2[nH]c(/C=C/c3cc4ccc(C(=N)N)cc4o3)cc2c1` [NSC 294203] as the molecule, how does the “Percent Inhibition” value [1] read?
The value was 92.

For `N=C(N)c1ccc(/C=C/c2cc3ccc(C(=N)N)cc3[nH]2)cc1` [NSC 317886], which “Percent Inhibition” value [1] is on record?
The value was 93.

What does the source list for `Nc1c(/C=C/c2cc3cc(C4=NCCN4)ccc3o2)[nH]c2cc(C3=NCCN3)ccc12` [NSC 357756]?
Inhibition type [1]: competitive inhibition; Ki [1]: 4.9 ± 1.7 µM; Km(app) with inhibitor concentration [1]: increased; effect on the Vmax [1]: no effect; inhibition at 20 µM [1]: 90%; protection (J774A.1 cells): about 96%; protection (in words) (J774A.1 cells): some protection

With `O=C(Nc1ccc(C2=NCCN2)cc1)c1cc2ccc(C3=NCCN3)cc2[nH]1` [NSC 294206] as the molecule, how does the “Percent Inhibition” value [1] read?
Its value is 56.

With `N=C(N)c1ccc2cc(/C=C/c3cc4ccc(C(=N)N)cc4o3)[nH]c2c1` [NSC 294200] as the molecule, how does the “Percent Inhibition” value [1] read?
The value was 92.

With `N=C(N)c1ccc(N=Nc2cc(N=Nc3ccc(C(=N)N)cc3)c(O)cc2O)cc1` [NSC 359465] as the molecule, how does the inhibition at 20 µM [1] read?
Its inhibition at 20 µM is 48%.

`N=C(N)c1ccc(Oc2ccc(-c3cc4ccc(C(=N)N)cc4[nH]3)cc2)cc1` [NSC 240898] was tested. Which “Percent Inhibition” value [1] did it give?
The value was 72.

With `Nc1ccc(/N=N/c2ccc3cc4ccc(/N=N/c5ccc(N)nc5N)cc4nc3c2)c(N)n1` [NSC 354962] as the molecule, how does the “Percent Inhibition” value [1] read?
Its value is 40.

Which Inhibition type [1] does the source give for `c1cc(-c2nc3cc(-c4nc5cc(C6=NCCN6)ccc5[nH]4)ccc3[nH]2)ccc1C1=NCCN1` [NSC 369721] here?
The Inhibition type was “competitive inhibition”.

And the Ki [1]?
The Ki was 4.2 ± 0.21 µM.

And the “Km(app) with inhibitor concentration” value [1]?
The value was “increased”.

And the “effect on the Vmax” value [1]?
The value was “no effect”.

And the inhibition at 20 µM [1]?
The inhibition at 20 µM was 90%.

What about the “protection (in words)” value (J774A.1 cells) of the same molecule?
Its value is “ineffective”.

For `C(=C\c1cc2ccc(C3=NCCN3)cc2o1)/c1cc2ccc(C3=NCCN3)cc2o1` [NSC 294494], which “Percent Inhibition” value [1] is on record?
The value was 29.

`c1cc2cc(-c3ccc4cc(-c5ccc6oc(C7=NCCN7)cc6c5)[nH]c4c3)[nH]c2cc1C1=NCCN1` [NSC 369718] was tested. Which inhibition at 20 µM [1] did it give?
The inhibition at 20 µM was 90%.

What about the “protection (in words)” value (J774A.1 cells) of the same molecule?
Its value is “lower protection; also recorded: some protection”.

With `c1cc(-c2[nH]c3cc(C4=NCCN4)ccc3c2-c2cc3ccc(C4=NCCN4)cc3[nH]2)ccc1C1=NCCN1` [NSC 341911] as the molecule, how does the “Percent Inhibition” value [1] read?
Its value is 64.

Which “Percent Inhibition” value [1] does the source give for `N=C(N)c1ccc(-c2[nH]c3cc(C(=N)N)ccc3c2N)cc1` [NSC 300509] here?
The value was 46.

For `N=C(N)N/N=C/c1ccc(-c2cc3ccc(/C=N/NC(=N)N)cc3s2)cc1` [NSC 341909], which “Percent Inhibition” value [1] is on record?
The value was 90.

For `N=C(N)c1ccc2[nH]c(/C=C/c3cc4cc(C(=N)N)ccc4o3)cc2c1` [NSC 290107], which “Percent Inhibition” value [1] is on record?
Its value is 85.

For `N=C(N)c1ccc(/C=C/c2cc3cc(C(=N)N)ccc3[nH]2)cc1` [NSC 317884], which “Percent Inhibition” value [1] is on record?
Its value is 95.

Which “Percent Inhibition” value [1] does the source give for `c1cc2cc(-c3ccc(-c4cc5ccc(C6=NCCN6)cc5[nH]4)cc3)[nH]c2cc1C1=NCCN1` [NSC 317881] here?
Its value is 97.
